The record followed here is patent US7241760B2, “Heteroaryl-substituted imidazole derivatives” (Hoffmann-La Roche Inc., priority 2003, dated 2007).

pKi: −log10 of the molar value.

For the test, the target named is T1, human mGlu 5a receptor (Homo sapiens, UniProt P41594).
T1 construct: expressed in transfected cells; host or cells: EBNA cells (transient transfection); cell membrane homogenates
T1 sequence (P41594 21-1180 isoform P41594-2 limits assumed): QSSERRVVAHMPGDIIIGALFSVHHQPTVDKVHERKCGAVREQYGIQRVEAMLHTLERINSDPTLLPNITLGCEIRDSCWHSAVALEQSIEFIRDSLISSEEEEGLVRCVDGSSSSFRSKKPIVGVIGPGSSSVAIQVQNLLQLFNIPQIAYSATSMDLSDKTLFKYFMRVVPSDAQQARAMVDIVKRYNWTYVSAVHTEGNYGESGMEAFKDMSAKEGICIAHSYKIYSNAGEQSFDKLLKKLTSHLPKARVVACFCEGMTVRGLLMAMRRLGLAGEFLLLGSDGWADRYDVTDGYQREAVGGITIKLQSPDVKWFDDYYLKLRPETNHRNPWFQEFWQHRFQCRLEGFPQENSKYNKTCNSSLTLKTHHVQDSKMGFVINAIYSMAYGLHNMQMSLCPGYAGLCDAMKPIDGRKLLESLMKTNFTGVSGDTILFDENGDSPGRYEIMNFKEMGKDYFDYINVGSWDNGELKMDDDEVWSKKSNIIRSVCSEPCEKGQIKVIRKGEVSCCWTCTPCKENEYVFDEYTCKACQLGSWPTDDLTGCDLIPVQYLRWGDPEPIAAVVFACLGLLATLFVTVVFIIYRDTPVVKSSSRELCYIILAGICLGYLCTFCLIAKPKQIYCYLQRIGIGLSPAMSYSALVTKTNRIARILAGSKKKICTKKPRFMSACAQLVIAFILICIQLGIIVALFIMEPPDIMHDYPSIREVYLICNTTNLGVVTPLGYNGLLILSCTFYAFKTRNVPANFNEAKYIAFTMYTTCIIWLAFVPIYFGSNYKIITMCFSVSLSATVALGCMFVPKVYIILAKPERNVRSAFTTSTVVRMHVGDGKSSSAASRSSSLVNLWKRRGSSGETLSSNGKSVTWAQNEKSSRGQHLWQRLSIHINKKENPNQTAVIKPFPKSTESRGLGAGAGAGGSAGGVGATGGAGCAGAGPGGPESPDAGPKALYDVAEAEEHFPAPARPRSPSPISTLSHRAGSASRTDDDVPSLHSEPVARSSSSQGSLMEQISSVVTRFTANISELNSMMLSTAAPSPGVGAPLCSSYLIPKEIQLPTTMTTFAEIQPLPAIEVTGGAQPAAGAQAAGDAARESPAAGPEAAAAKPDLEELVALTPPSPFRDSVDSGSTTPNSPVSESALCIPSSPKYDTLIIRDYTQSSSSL
The experiment in a line: [3H]MPEP competition binding on membranes of EBNA cells transfected with human mGlu 5a receptor. Particulars: competition with [3H]MPEP (2 nM), 1 h at 4° C., membranes of transiently transfected EBNA cells; Ki=IC50/[1+L/Kd]. Here is the method: For binding experiments, cDNA encoding human mGlu 5a receptor was transiently transfected into EBNA cells using a procedure described by Schlaeger and Christensen [Cytotechnology 15:1–13 (1998)]. Cell membrane homogenates were stored at −80° C. until the day of assay where upon they were thawed and resuspended and polytronised in 15 mM Tris-HCl, 120 mM NaCl, 100 mM KCl, 25 mM CaCl2, 25 mM MgCl2 binding buffer at pH 7.4 to a final assay concentration of 20 μg protein/well.
Saturation isotherms were determined by addition of twelve [^3H]MPEP concentrations (0.04–100 nM) to these membranes (in a total volume of 200 μl) for 1 h at 4° C. Competition experiments were performed with a fixed concentration of [^3H]MPEP (2 nM) and IC50 values of test compounds evaluated using 11 concentrations (0.3–10,000 nM). Incubations were performed for 1 h at 4° C.
At the end of the incubation, membranes were filtered onto unifilter (96-well white microplate with bonded GF/C filter preincubated 1 h in 0.1% PEI in wash buffer, Packard BioScience, Meriden, Conn.) with a Filtermate 96 harvester (Packard BioScience) and washed 3 times with cold 50 mM Tris-HCl, pH 7.4 buffer. Nonspecific binding was measured in the presence of 10 μM MPEP. The radioactivity on the filter was counted (3 min) on a Packard Top-count microplate scintillation counter with quenching correction after addition of 45 μl of microscint 40 (Can berra Packard S. A., Zürich, Switzerland) and shaking for 20 min. For functional assays, [Ca^2+]i measurements were performed as described previously by Porter et al. [Br. J. Pharmacol. 128:13–20 (1999)] on recombinant human mGlu 5a receptors in HEK-293 cells. The cells were dye loaded using Fluo 4-AM (obtainable by FLUKA, 0.2 μM final concentration). [Ca^2+]i measurements were performed using a fluorometric imaging plate reader (FLIPR, Molecular Devices Corporation, La Jolla, Calif., USA). Antagonist evaluation was performed following a 5 min preincubation with the test compounds followed by the addition of a submaximal addition of agonist.
The inhibition (antagonists) curves were fitted with a four parameter logistic equation giving IC50, and Hill coefficient using an iterative non linear curve fitting software (Xcel fit).
For binding experiments the Ki values of the compounds tested are given. The Ki value is defined by the following formula: Ki=IC50/[1+L/Kd] in which the IC50 values are those concentrations of the compounds tested which cause 50% inhibition of the competing radioligand ([^3H]MPEP). L is the concentration of radioligand used in the binding experiment and the Kd value of the radioligand is empirically determined for each batch of membranes prepared.
Regarding `Cc1nc(C#Cc2cccc(Cl)c2)cn1-c1ncccn1` [Example 1, 2-[4-(3-Chloro-phenylethynyl)-2-methyl-imidazol-1-yl]-pyrimidine], the negative logarithm of the Ki (pKi) was 7.20.

In the case of `Cc1nc(C#Cc2cccc(Cl)c2)cn1-c1nccc(C(F)(F)F)n1` [Example 2, 2-[4-(3-Chloro-phenylethynyl)-2-methyl-imidazol-1-yl]-4-trifluoromethyl-pyrimidine], the negative logarithm of the Ki (pKi) was 7.55. With `Cc1cccc(-n2cc(C#Cc3cccc(C#N)c3)nc2C)n1` [Example 3, 3-[2-Methyl-1-(6-methyl-pyridin-2-yl)-1H-imidazol-4-ylethynyl]-benzonitrile], the pKi is 7.51.

With `Cc1cc(-n2cc(C#Cc3cccc(Cl)c3)nc2C)cnn1` [Example 8, 5-[4-(3-Chloro-phenylethynyl)-2-methyl-imidazol-1-yl]-3-methyl-pyridazine], the pKi was 6.80. As to `Cc1nc(C#Cc2cccc(Cl)c2)cn1-c1ccoc1` [Example 9, 4-(3-Chloro-phenylethynyl)-1-furan-3-yl-2-methyl-1H-imidazole], the pKi is 7.96. With `COc1ccnc(-n2cc(C#Cc3cccc(C#N)c3)nc2C)n1` [Example 20, 3-[1-(4-Methoxy-pyrimidin-2-yl)-2-methyl-1H-imidazol-4-ylethynyl]-benzonitrile], the negative logarithm of the Ki (pKi) is 7.96. With `Cc1nc(C#Cc2cccc(C#N)c2)cn1-c1cnccn1` [Example 22, 3-(2-Methyl-1-pyrazin-2-yl-1H-imidazol-4-ylethynyl)-benzonitrile], the negative-log Ki (pKi) was 7.22. For the compound `Cc1nc(C#Cc2cccc(Cl)c2)cn1-c1ccc(Cl)nn1` [Example 25, 3-Chloro-6-[4-(3-chloro-phenylethynyl)-2-methyl-imidazol-1-yl]-pyridazine], the pKi was 7.49.

Turning to `COc1ccc(-n2cc(C#Cc3cccc(Cl)c3)nc2C)nn1` [Example 26, 3-[4-(3-Chloro-phenylethynyl)-2-methyl-imidazol-1-yl]-6-methoxy-pyridazine], the pKi is 7.03. As to `Cc1nc(C#Cc2cccc(Cl)c2)cn1-c1ccc(N(C)C)nn1` [Example 27, {6-[4-(3-Chloro-phenylethynyl)-2-methyl-imidazol-1-yl]-pyridazin-3-yl}-dimethyl-amine], the pKi was 6.89. As for `Cc1ccc(-n2cc(C#Cc3cccc(C(F)(F)F)c3)nc2C)nc1` [Example 31, 5-Methyl-2-[2-methyl-4-(3-trifluoromethyl-phenylethynyl)-imidazol-1-yl]-pyridine], the pKi was 7.06. Regarding `Cc1nc(C#Cc2cccc(C(F)(F)F)c2)cn1-c1ccc(Cl)nc1` [Example 33, 2-Chloro-5-[2-methyl-4-(3-trifluoromethyl-phenylethynyl)-imidazol-1-yl]-pyridine], the pKi was 7.18. Turning to `Cc1nc(C#Cc2cccc(C#N)c2)cn1-c1cncc(F)c1` [Example 35, 3-[1-(5-Fluoro-pyridin-3-yl)-2-methyl-1H-imidazol-4-ylethynyl]-benzonitrile], the negative-log Ki (pKi) is 7.41. With `Cc1nc(C#Cc2cccc(C#N)c2)cn1-c1cncc(N(C)C)c1` [Example 38, 3-[1-(5-Dimethylamino-pyridin-3-yl)-2-methyl-1H-imidazol-4-ylethynyl]-benzonitrile], the negative-log Ki (pKi) was 7.00. `Cc1nc(C#Cc2cccc(Cl)c2)cn1-c1cccc(N2CCSCC2)n1` [Example 39, 4-{6-[4-(3-Chloro-phenylethynyl)-2-methyl-imidazol-1-yl]-pyridin-2-yl}-thiomorpholine]: the pKi is 8.05.

Consider `Cc1nc(C#Cc2cccc(Cl)c2)cn1-c1cccc(N2CCS(=O)(=O)CC2)n1` [Example 40, 4-{6-[4-(3-Chloro-phenylethynyl)-2-methyl-imidazol-1-yl]-pyridin-2-yl}-thiomorpholine-1,1-dioxide], for which the negative-log Ki (pKi) is 7.17.
